The numbers were not newly measured in patent US20080161405A1, “Biguanide Composition and Method of Treatment and Prevention of Infections” (priority 2006, published 2008), which cites them from elsewhere.

Data set [1] relates to acanthamoeba cysts and trophazoites.
In the next data set the test system is Aspergillus keratitis. To be noted: 0.02%.
In a further data set the test system is Fusarium Keratomycosis. To be noted: 0.02% solution, rabbit model.
The subject of another data set is Acanthamoeba keratitis. To be noted: case report, recurrence in the eye.

In brackets after ≈: the same amount, converted by molar mass.

With `CCCCC(CC)CNC(=N)NC(=N)NCCCCCCNC(=N)NC(=N)NCC(CC)CCCC` (stereo not shown) [Alexidine, 1,1′-hexamethylene-bis[5-(2-ethylhexyl)biguanide]], the minimum inhibitory concentration in data set [1] is 6.3 µg/mL (≈ 12.4 µM).

As to “poly(hexamethylene biguanide) [polyhexamethylene biguanide]”, in the data set on Aspergillus keratitis, the “effectiveness in experimental Aspergillus keratitis” value is listed as “moderately effective”. Further, the “reduction of fungal growth” value in the data set on Fusarium Keratomycosis was “effective at reducing fungal growth”. In addition, the “treatment of recurrence of Acanthamoeba keratitis” value with Acanthamoeba keratitis is “successfully treated”.
